The results in this text go back to PMC8708751, “Hit Identification of a Novel Quinazoline Sulfonamide as a Promising EphB3 Inhibitor: Design, Virtual Combinatorial Library, Synthesis, Biological Evaluation, and Docking Simulation Studies” (Pharmaceuticals, 2021).

Like-named read-outs stand apart in the source and are kept apart here.

Common to all, as to assay type: biochemical
In one assay the target is T1, KDR/VEGFR2 (Homo sapiens, UniProt P35968).
T1 construct: purchased Reaction Biology Co. (Kinase HotSpot service)
The experiment in a line: Kinase panel assay, KDR/VEGFR2. To be noted: KDR/VEGFR2, 10 µM; read-out: Average % Enzyme Inhibition (Relative to DMSO Controls) at 10 µM. As to the method: (§1) The screening of the tested compounds was performed using the Kinase HotSpot^SM service from Reaction Biology Co. (http://www.reactionbiology.com, accessed on 25 September 2021). The HotSpot assay platform contains specific kinase/substrate pairs along with required cofactors. Base reaction buffer: 20 mM Hepes (pH 7.5), 10 mM MgCl2, 1 mM EGTA, 0.02% Brij35, 0.02 mg/mL BSA, 0.1 mM Na3VO4, 2 mM DTT, 1% DMSO. The tested compounds were dissolved in 100% DMSO to specific concentration. The serial dilution was conducted by Integra Viaflo Assist in DMSO (Sigma-Aldrich, Burlington, MA, USA). The reaction mixture containing the examined compound and 33P-ATP was incubated at room temperature for 2 h, and radioactivity was detected by filter-binding method. Kinase activity data were expressed as the percent remaining kinase activity in test samples compared to vehicle (dimethyl sulfoxide) reactions. IC50 values and curve fits were obtained using Prism (GraphPad Software, San Diego, CA, USA).

Another assay concerns the target T2, EGFR kinase (Homo sapiens, UniProt P00533).
T2 construct: purchased Reaction Biology Co. (Kinase HotSpot service)
The experiment in a line: EGFR kinase inhibition assay (HotSpot).

A further assay deals with T3, EphB4 (Homo sapiens, UniProt P54760).
T3 construct: purchased Reaction Biology Co. (Kinase HotSpot service)
T3 sequence (P54760 16-987): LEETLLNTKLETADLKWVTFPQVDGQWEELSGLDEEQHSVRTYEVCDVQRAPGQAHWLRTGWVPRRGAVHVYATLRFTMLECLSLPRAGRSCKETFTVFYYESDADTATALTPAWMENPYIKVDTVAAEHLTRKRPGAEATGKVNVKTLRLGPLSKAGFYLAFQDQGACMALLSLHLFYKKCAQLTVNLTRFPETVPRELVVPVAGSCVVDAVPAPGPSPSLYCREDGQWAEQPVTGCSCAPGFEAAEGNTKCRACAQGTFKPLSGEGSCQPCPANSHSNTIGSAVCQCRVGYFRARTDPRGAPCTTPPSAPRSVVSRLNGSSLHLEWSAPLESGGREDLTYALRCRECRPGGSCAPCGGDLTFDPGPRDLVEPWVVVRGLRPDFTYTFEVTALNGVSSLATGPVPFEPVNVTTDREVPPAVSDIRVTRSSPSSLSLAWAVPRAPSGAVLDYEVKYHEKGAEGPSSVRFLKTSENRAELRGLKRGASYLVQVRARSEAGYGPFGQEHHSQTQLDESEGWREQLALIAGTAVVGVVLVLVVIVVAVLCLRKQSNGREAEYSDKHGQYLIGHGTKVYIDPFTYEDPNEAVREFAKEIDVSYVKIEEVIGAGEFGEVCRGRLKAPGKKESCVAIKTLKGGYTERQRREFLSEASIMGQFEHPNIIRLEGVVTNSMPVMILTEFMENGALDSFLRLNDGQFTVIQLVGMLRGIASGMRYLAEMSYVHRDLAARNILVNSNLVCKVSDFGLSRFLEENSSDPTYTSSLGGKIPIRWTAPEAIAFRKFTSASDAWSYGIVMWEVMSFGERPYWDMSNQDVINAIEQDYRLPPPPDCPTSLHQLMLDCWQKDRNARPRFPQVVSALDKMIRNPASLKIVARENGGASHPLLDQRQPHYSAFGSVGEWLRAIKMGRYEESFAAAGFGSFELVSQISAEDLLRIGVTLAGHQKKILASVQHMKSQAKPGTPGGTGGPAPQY
The experiment in a line: Kinase panel assay, EphB4. As for the experimental part:
as §1, with “The” for “The screening of the tested compounds was performed using the Kinase HotSpot^SM service from Reaction Biology Co. (http://www.reactionbiology.com, accessed on 25 September 2021). The”

The next assay has as its target T4, Aurora A (Homo sapiens, UniProt O14965).
T4 construct: purchased Reaction Biology Co. (Kinase HotSpot service)
T4 sequence (O14965 1-403): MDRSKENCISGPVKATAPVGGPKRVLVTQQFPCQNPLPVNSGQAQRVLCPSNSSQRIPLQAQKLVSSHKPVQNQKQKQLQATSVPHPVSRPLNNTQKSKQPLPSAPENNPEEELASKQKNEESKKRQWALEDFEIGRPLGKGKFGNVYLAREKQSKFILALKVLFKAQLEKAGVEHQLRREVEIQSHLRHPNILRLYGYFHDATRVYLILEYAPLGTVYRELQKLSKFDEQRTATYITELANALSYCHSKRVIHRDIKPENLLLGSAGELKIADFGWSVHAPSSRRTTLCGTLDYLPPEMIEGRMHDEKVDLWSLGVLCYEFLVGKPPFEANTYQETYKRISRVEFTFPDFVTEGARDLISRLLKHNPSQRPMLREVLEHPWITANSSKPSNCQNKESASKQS
The assay can be described thus: Kinase panel assay, Aurora A. Particulars: read-out: Average % Enzyme Inhibition (Relative to DMSO Controls) at 10 µM. As for the experimental part:
as §1

T2 sequence (P00533 25-1210): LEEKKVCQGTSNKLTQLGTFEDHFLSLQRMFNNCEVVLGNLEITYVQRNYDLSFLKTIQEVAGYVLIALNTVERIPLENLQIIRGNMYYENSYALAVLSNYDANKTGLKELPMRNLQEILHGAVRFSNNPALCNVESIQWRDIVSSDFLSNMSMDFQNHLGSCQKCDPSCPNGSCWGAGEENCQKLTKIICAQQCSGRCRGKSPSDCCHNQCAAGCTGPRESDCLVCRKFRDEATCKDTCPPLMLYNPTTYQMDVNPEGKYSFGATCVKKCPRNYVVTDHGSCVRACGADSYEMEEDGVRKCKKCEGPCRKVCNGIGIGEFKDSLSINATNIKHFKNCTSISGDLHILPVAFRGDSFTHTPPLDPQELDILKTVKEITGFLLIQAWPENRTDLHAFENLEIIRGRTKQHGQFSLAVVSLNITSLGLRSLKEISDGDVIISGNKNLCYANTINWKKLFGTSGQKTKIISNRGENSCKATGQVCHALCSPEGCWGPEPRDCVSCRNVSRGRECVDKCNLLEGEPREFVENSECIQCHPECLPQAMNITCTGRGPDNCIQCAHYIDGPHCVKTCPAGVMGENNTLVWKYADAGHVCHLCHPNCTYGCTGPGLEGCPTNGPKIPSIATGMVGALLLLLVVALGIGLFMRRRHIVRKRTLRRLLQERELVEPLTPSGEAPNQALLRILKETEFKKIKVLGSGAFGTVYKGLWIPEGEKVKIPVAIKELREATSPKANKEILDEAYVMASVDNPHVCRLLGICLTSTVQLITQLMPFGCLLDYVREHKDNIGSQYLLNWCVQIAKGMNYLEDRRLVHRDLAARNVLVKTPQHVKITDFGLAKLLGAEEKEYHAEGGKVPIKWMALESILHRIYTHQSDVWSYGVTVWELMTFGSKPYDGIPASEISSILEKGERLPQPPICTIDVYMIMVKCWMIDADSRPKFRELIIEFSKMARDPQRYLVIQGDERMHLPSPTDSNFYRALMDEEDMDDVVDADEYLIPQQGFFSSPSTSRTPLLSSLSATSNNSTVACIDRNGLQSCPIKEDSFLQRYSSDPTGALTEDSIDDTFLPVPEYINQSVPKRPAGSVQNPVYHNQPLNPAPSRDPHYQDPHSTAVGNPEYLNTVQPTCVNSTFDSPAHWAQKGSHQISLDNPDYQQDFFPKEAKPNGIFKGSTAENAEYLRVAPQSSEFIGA
T1 sequence (P35968 20-1356): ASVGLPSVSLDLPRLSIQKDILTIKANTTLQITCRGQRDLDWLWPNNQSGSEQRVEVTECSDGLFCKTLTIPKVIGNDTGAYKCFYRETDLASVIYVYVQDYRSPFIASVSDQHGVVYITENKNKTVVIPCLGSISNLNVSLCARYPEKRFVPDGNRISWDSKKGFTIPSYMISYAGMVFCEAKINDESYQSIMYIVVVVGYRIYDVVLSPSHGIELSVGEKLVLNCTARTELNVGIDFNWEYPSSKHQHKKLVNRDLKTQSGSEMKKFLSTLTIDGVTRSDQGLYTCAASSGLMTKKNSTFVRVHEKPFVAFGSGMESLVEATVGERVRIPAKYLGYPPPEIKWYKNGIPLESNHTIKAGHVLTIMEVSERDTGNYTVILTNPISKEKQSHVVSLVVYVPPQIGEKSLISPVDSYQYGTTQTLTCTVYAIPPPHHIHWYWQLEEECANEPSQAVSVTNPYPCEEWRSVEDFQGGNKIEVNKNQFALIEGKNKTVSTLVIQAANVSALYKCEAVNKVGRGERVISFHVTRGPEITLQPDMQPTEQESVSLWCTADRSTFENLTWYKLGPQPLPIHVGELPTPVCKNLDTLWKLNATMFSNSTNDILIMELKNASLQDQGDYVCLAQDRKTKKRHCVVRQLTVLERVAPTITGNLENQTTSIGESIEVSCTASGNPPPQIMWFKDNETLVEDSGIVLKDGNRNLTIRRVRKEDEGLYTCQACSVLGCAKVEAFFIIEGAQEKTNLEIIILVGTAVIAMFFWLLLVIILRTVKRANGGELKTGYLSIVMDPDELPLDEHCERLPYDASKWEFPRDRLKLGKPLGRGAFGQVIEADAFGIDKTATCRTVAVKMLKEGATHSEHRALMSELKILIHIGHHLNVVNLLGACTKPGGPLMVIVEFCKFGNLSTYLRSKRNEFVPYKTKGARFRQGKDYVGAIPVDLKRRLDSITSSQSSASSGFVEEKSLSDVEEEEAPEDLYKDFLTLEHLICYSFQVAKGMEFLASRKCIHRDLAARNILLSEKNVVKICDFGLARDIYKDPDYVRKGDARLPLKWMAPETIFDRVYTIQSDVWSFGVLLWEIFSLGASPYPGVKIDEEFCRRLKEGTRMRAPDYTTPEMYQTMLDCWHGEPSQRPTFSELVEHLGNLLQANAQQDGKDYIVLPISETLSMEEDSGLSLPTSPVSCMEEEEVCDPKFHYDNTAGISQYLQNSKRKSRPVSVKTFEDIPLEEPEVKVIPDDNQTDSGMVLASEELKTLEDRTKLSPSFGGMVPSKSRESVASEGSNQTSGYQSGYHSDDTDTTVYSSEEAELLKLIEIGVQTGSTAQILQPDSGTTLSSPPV

What is called inhibition is the share of the control response that was lost under treatment. Broadly, the IC50 is the midpoint of a concentration-inhibition curve. Consider `NS(=O)(=O)c1ccc(Nc2ncnc3ccc(-c4cccc(O)c4)cc23)cc1` [Compound 4c, 4-((6-(3-Hydroxyphenyl)quinazolin-4-yl)amino)benzenesulfonamide], for which the inhibition at 10 µM was 47.8% at KDR/VEGFR2; 46.8 ± 0.54% on EGFR kinase (EGFR kinase, 10 µM compound, 10 µM ATP as printed, read-out: Average % Enzyme Inhibition (Relative to DMSO Controls) at 10 µM); 70.2 ± 3.64% at EphB4 (EphB4, 10 µM, read-out: Average % Enzyme Inhibition (Relative to DMSO Controls) at 10 µM); 67.9 ± 4.93% at Aurora A. Further, the IC50 came out at 8.04 µM at EGFR kinase (EGFR kinase, dose dependent assay, read-out: IC50); 8.04 µM on EGFR kinase (EGFR, read-out: EC50 of the curve fit printed in Figure 6 (IC50 per legend)); 3.98 µM against EphB4 (EphB4, dose-dependent assay).
